The source made the active and inactive calls. The rule behind the calls is not given here.
Legend:
[1] = system: Mus musculus; assay: Neuroprotective activity in C57BL/6 mouse model of transient middle cerebral artery occlusion induced cerebral ischemia reperfusion injury assessed reduction in infarct size at 10 mg/kg, ip measured after 24 hrs by TTC staining based assay; assay type: functional, organism-based
[2] = system: Mus musculus; assay: (§1) Neuroprotective activity in C57BL/6 mouse model of transient middle cerebral artery occlusion induced cerebral ischemia reperfusion injury assessed as inhibition of apoptosis by measuring decrease in TUNEL positive nuclei in cortex at 10 mg/kg, ip measured after 12 hrs by TUNEL staining based assay (reference value: 53.64 +/- 7.63); assay type: functional
[3] = species: Mus musculus; assay: Neuroprotective activity in C57BL/6 mouse model of transient middle cerebral artery occlusion induced cerebral ischemia reperfusion injury assessed as neuronal apoptosis by measuring increase in caspase-3 positive cells incubated for 1 hrs by immunohistochemistry; assay type: functional, organism-based
[4] = (§2) Downregulation of cyt-c expression in cortex of C57BL/6 mouse model of transient middle cerebral artery occlusion induced cerebral ischemia reperfusion injury at 10 mg/kg, ip measured after 24 hrs of reperfusion by immunohistochemistry (reference value: 15.58 +/- 2.34); assay type: functional
[5] = as §2, with “AIF” for “cyt-c”, “injury assessed as AIP-posotive cells in ischemic cortex” for “injury”, “46.7” for “15.58”, “3.45)” for “2.34)”; assay type: functional
[6] = system: Mus musculus; assay: Neuroprotective activity in C57BL/6 mouse model of transient middle cerebral artery occlusion induced cerebral ischemia reperfusion injury assessed as change in infract volume at 10 mg/kg, ip measured after 24 hrs by TTC staining based assay (reference value: 21.86 +/- 4.65 %); assay type: functional
[7] = as §2, with “AIF” for “cyt-c”, “injury assessed as AIP-posotive cells in hippocampus” for “injury”, “27.35” for “15.58”, “3.67)” for “2.34)”; assay type: functional
[8] = Downregulation of cyt-c expression in cortex of C57BL/6 mouse model of transient middle cerebral artery occlusion induced cerebral ischemia reperfusion injury measured after 24 hrs of reperfusion by immunohistochemistry; assay type: functional
[9] = Downregulation of cyt-c expression in hippocampus of C57BL/6 mouse model of transient middle cerebral artery occlusion induced cerebral ischemia reperfusion injury measured after 24 hrs of reperfusion by immunohistochemistry; assay type: functional
[10] = species: Mus musculus; assay: Neuroprotective activity in C57BL/6 mouse model of transient middle cerebral artery occlusion induced cerebral ischemia reperfusion injury assessed as neuronal apoptosis by measuring increase in TUNEL positive nuclei measured after 12 hrs by TUNEL staining based assay; assay type: functional, organism-based
[11] = system: Mus musculus; assay: Neuroprotective activity in C57BL/6 mouse model of transient middle cerebral artery occlusion induced cerebral ischemia reperfusion injury assessed as inhibition of apoptosis by measuring decrease in caspase-3 positive cells in cortex at 10 mg/kg, ip incubated for 1 hrs by immunohistochemistry (reference value: 7.58 +/- 2.15); assay type: functional
[12] = system: Mus musculus; assay: Neuroprotective activity in C57BL/6 mouse model of transient middle cerebral artery occlusion induced cerebral ischemia reperfusion injury assessed as neurological deficits at 10 mg/kg, ip measured 24 hrs after reperfusion by […] (reference value: 5.86 +/- 0.64); assay type: functional
[13] = Downregulation of cyt-c expression in hippocampus of C57BL/6 mouse model of transient middle cerebral artery occlusion induced cerebral ischemia reperfusion injury at 10 mg/kg, ip measured after 24 hrs of reperfusion by immunohistochemistry (reference value: 20.52+/- 2.08); assay type: functional
[14] = system: Mus musculus; assay: as §1, with “hippocampus” for “cortex”, “55.42” for “53.64”, “4.86)” for “7.63)”; assay type: functional

Question: Which Activity [1] does the source give for `c1cc(-c2cnn3cc(-c4ccc(OCCN5CCCCC5)cc4)cnc23)ccn1` [DORSOMORPHIN] here?
Answer: The Activity was “Active”.

Question: And the Activity [2]?
Answer: Its Activity is 53.64.

Question: What about the Activity [3] of the same compound?
Answer: Its Activity is “Active”.

Question: What about the “fold change (FC)” value [4] of the same compound?
Answer: The value was 45.32.

Question: What about the “fold change (FC)” value [5] of the same compound?
Answer: Its value is 26.36.

Question: And the Activity [6]?
Answer: The Activity was 42.56%.

Question: And the “fold change (FC)” value [7]?
Answer: Its value is 13.17.

Question: What about the “fold change (FC)” value [8] of the same compound?
Answer: Its value is 45.32.

Question: What about the “fold change (FC)” value [9] of the same compound?
Answer: The value was 52.08.

Question: And the Activity [10]?
Answer: The Activity was “Active”.

Question: And the Activity [11]?
Answer: The Activity was 15.63.

Question: What about the Activity [12] of the same compound?
Answer: The Activity was 9.26.

Question: What about the “fold change (FC)” value [13] of the same compound?
Answer: Its value is 52.08.

Question: And the Activity [14]?
Answer: Its Activity is 55.42.

Source: ChEMBL document CHEMBL5055680, “AMPK inhibitor BML-275 induces neuroprotection through decreasing cyt c and AIF expression after transient brain ischemia” (2021)
